Measurements as given in US20070184017A1, “Anti-aging treatment using copper and zinc compositions” (priority 2006, published 2007).

Tested on: wrinkling on face
Assay: Gel composition applied to wrinkled face twice daily (Example 1)
Format: in vivo, human
Details: person
Excerpt: A person is suffering from wrinkling on their face. A gel composition suitable for treatment of skin containing an effective amount of copper-zinc malonate active ingredient is routinely applied to their face twice daily.

With copper-zinc malonate the wrinkling on face was “reduced or eliminated”.
